Tested on: angiotensin converting enzyme
Assay: In-vivo ACE inhibitory activity: inhibition of the pressor response to i.v. angiotensin I in anesthetised rats
Details: for ID50 (i.v.): intravenous dose required to inhibit the pressor response to i.v. angiotensin I by 50% in anesthetised rats; for ID50 (oral): oral dose required to inhibit the pressor response to i.v. angiotensin I by 50% in anesthetised rats
Text: As mentioned before the compounds of this invention show valuable antihypertensive activity. It can be concluded from animal tests that these compounds have high angiotensin converting enzyme inhibitory activity (ACE inhibitory activity). The in-vivo ACE inhibitory activity of Compound A: 1- [N-[1(S)-carboxy-3- [4-(4-chloro-3-sulfamoyl benzamido) phenyl] propyl](S)-alanyl]cis,syn-octahydroindole-2-(S)-carboxylic acid Compound B: 1-[N-[1(S)-carboxy-3-[4-(4-chloro-3-N-methyl-sulfamoyl benzamido)phenyl]propyl]-(S)-alanyl]cis, syn-octahydroindole-2(S)-carboxylic acid is as follows: […]

Row | Compound | ID50 (i.v.) [mg/kg] | ID50 (oral) [mg/kg]
1 | C[C@H](N[C@@H](CCc1ccc(NC(=O)c2ccc(Cl)c(S(N)(=O)=O)c2)cc1)C(=O)O)C(=O)N1[C@H](C(=O)O)C[C@@H]2CCCC[C@@H]21 [Compound A, 1-[N-[1(S)-carboxy-3-[4-(4-chloro-3-sulfamoylbenzamido)phenyl]propyl](S)-alanyl]cis,syn-octahydroindole-2-(S)-carboxylic acid] | 0.036 | 3
2 | CNS(=O)(=O)c1cc(C(=O)Nc2ccc(CC[C@H](N[C@@H](C)C(=O)N3[C@H](C(=O)O)C[C@@H]4CCCC[C@@H]43)C(=O)O)cc2)ccc1Cl [Compound B, 1-[N-[1(S)-carboxy-3-[4-(4-chloro-3-N-methyl-sulfamoylbenzamido)phenyl]propyl]-(S)-alanyl]cis, syn-octahydroindole-2(S)-carboxylic acid] | 0.033 | 3

— patent EP0236307B1, “ANTIHYPERTENSIVE AGENTS, PHARMACEUTICAL COMPOSITIONS CONTAINING THEM AND PROCESSES FOR THE PREPARATION OF THE AGENTS AND COMPOSITIONS” (SCHERING CORPORATION, priority 1985, dated 1987)
